In a melting point compilation (Tetko et al.):

Conditions: a range is the spread between reports

Structure (SMILES) | melting point [°C]
N#CCCC(Br)(C#N)CBr (stereo unspecified) | 50 to 52
ClCCBr | -18 to -16.7
C=CCCCCCCCCCCCCCCCC | 16 to 18
Nc1nccs1 | 90 to 93
CCC(CC)CC | -119
CCCCCCCCCCCCCCCCCCN | 52.9 to 56
CCCCCCCCCCCCCCCCCCCCCCCCC | 53 to 54
CCCCCCCCCCCCCCCCCCBr | 28 to 28.2
ClCCCCCCl | -73 to -72
CC(C)(C)C1CCCCC1 | -41.2 to -41
CC1=CC(=O)OC1=O | 7.5 to 8
Nc1ccc(Cl)cc1Cl | 61 to 63.5
OCCCCCCO | 42 to 45
CC1=C(/C=C/C(C)=C/C=C/C(C)=C/C=C/C=C(C)/C=C/C=C(C)/C=C/C2=C(C)CCCC2(C)C)C(C)(C)CCC1 | 178 to 183
CCCSCCC | -103 to -102
CC12CCC(CC1)C(C)(C)O2 | 1 to 1.5
NC(=O)CCl | 118 to 121
CCC1=CCCCC1 | -110
CCOC=O | -81 to -79.6
Cc1cc(C)cc(C(C)(C)C)c1 | -22 to -18
C=CCn1c(=O)n(CC=C)c(=O)n(CC=C)c1=O | 20.5 to 24

Structure (SMILES) | melting point [°C]
O=C(Cl)c1ccc(F)cc1 | 9 to 10
O=C(O)C1CC1 | 15.5 to 18.5
O=C(Cl)c1ccc(Br)cc1 | 40 to 42
C1=CCCCC1 | -104
O=C(O)CCCCCCCC(=O)O | 102 to 106
CCCCCCCCCCCCCCCC(=O)OCC(COC(=O)CCCCCCCCCCCCCCC)OC(=O)CCCCCCCCCCCCCCC | 62 to 66.5
CCCCC(=O)OCC | -91.2 to -91
CCCCCCI | -75 to -74.2
CCCCCCCC | -57 to -56.8
CCC1(c2ccccc2)CCC(=O)NC1=O (stereo unspecified) | 84 to 87.5
ClCCOCCOCCCl | -32 to -31.5
CF | -143 to -142
CN(C)C=O | -61 to -60.4
N#CCc1ccc(N)cc1 | 44 to 46
O=C(O)Cc1cccc(Cl)c1 | 78 to 79
CCCCC(=O)CC | -39 to -37
C1CCOC1 | -108
CC1(C)CC(=O)CC(=O)C1 | 148
CCCCCCCCC | -54 to -53
O=[N+]([O-])c1cc([N+](=O)[O-])c(F)cc1F | 73 to 74
CC12CCC(=O)C=C1CCC1C2C(=O)CC2(C)C1CCC2(O)C(=O)CO (stereo unspecified) | 222 to 226

Structure (SMILES) | melting point [°C]
CCCCOC(=O)CCCCCCCCC(=O)OCCCC | -11 to -10
CCCCCCCCC(C)O (stereo unspecified) | -5 to -2
CCCCCCC | -91 to -90.6
CC(C)=CC(C)(C)C | -106
Nc1cccc(C(F)(F)F)c1 | 5.5 to 6
CC(=O)c1cc(C)c(C)cc1C | 10 to 10.5
C=CBr | -139 to -138
O=Cc1ccc(Cl)cc1Cl | 71 to 73
CC(=O)OO | -0.2 to 0.1
OCCCCCCCO | 18 to 22.5
ClCc1ccccc1CCl | 55 to 56
O=C1CN(N=Cc2ccc([N+](=O)[O-])o2)C(=O)N1 | 263 to 268
O=P(O)(Oc1ccccc1)Oc1ccccc1 | 66 to 67.5
CCOC(=O)CCCCC(=O)OCC | -20 to -18
CCCCCCCCCCCCC=O | 14 to 15
O=C(O)CCSCCC(=O)O | 129 to 131
Cc1ccc([N+](=O)[O-])cc1N | 106 to 108
NNc1c(F)c(F)cc(F)c1F | 89 to 92
O=C1CCO1 | -34 to -33.4
O=Cc1ccccc1 | -56.9 to -55.6
CN1CCCC1=O | -24 to -23

Second part, the compound after the results:

melting point [°C] | Structure (SMILES)
152 to 153 | CNc1ccc([N+](=O)[O-])cc1
35 to 40 | c1cc2c3c(c1)CCCN3CCC2
234 to 235 | Cc1cc(O)c2ccccc2n1
220 to 224 | Oc1ccc2cc(O)ccc2c1
91.5 to 94 | Nc1cnc2ccccc2c1
4 to 7 | OC/C=C\CO
214 to 216 | Nc1cc(C(=O)O)ccc1Cl
42 to 43 | O=C(CC(=O)C(F)(F)F)c1cccs1
138 to 139 | Oc1nc2ccccc2s1
54 to 57 | COc1ccc2[nH]ccc2c1
161 to 163 | CC(C)(C)c1ccc(O)c(N)c1
152 to 155 | Nc1c(Cl)ccc(Cl)c1C(=O)O
83.5 to 84 | Cc1cc(N)ccc1Cl
49 to 50 | OCc1ccccc1-c1ccccc1
184 | CN1CCN(C2=Nc3cc(Cl)ccc3Nc3ccccc32)CC1
315 to 320 | O=C1OC2(c3ccc(O)cc3Oc3cc(O)ccc32)c2ccccc21
127 to 131 | COC(=O)c1ccc(O)cc1
-89 to -87.5 | Cc1ccco1
43 to 44 | O=Cc1ccc(Cl)c(Cl)c1
112 | Nc1ccc(Br)cc1[N+](=O)[O-]

melting point [°C] | Structure (SMILES)
115 to 116 | O=C(O)CCC(=O)C(=O)O
210 to 216 | O=C(O)c1cc(-c2ccc(F)cc2F)ccc1O
79 to 82 | CNC(=O)c1ccccc1
118 to 121 | Nc1cc([N+](=O)[O-])ccc1Cl
125 to 129 | O=Cc1cc([N+](=O)[O-])ccc1O
96 to 97 | CCCOC(=O)c1ccc(O)cc1
-50 to -49.5 | CCc1cccc(C)c1C
-47 to -46 | CC(C)C(=O)O
189 to 194 | CC(=O)c1c[nH]c2ccccc12
98 to 100 | O=C(O)c1cc(F)c(F)cc1F
1 to 2 | CCOC(=O)c1ccccn1
164 to 165 | CN(C)c1ccc([N+](=O)[O-])cc1
102 to 103 | NNS(=O)(=O)c1ccccc1
10 to 10.5 | CC(=O)c1cccs1
160 to 161 | O=C(O)Cc1ccc(-c2ccccc2)cc1
205 to 208 | COc1cc(C(=O)O)cc(OC)c1O
145 to 149 | Cc1ccc(P(c2ccc(C)cc2)c2ccc(C)cc2)cc1
182 to 183 | O=C(O)c1ccc(Cl)c([N+](=O)[O-])c1
67.5 to 68 | Clc1ccc(Cl)nn1
176 to 177 | Nc1ccc(S(=O)(=O)c2ccc(N)cc2)cc1

melting point [°C] | Structure (SMILES)
67 to 69 | COC(=O)c1cc(Cl)ccc1N
38 to 39 | Nc1ccccc1C=O
30 to 33 | N#CCc1ccccc1C(F)(F)F
174 to 177 | O=C(c1ccc(Br)cc1)c1ccc(Br)cc1
184 to 185 | NC(=O)c1ccc(C(F)(F)F)cc1
67 to 68 | OCC(O)c1ccccc1 (stereo unspecified)
47.5 to 51 | Oc1ccccc1C=Nc1ccccc1
30 to 32 | CCOC(=O)C(=Cc1ccccc1)C(=O)OCC
52 to 53 | CN1CCN(CCCN2c3ccccc3Sc3ccccc32)CC1
-42.2 to -40 | Fc1ccccc1
-72 to -71.9 | Clc1cccs1
229 to 233 | O=C(O)c1ccc2c(c1)OCO2
7 to 9 | Cc1cccc(-c2cccc(C)c2)c1
98 to 99 | O=Cc1cc(O)ccc1O
37 to 41 | COc1ccccc1C(=O)c1ccccc1
41 to 45 | CC(C)(C)c1cccc(O)c1
-45 to -44.5 | O=Cc1ccccc1F
-15 to -12 | COC(=O)c1ccccc1
